Experimental data as given in patent publication US10849893B2 (Athenex HK Innovative Limited, priority 2018, dated 2020).
“And” between values parts separate entries of the source, which are not always exact repeats. Identical values can stand only once. Like-named read-outs stand apart in the source and are kept apart here.

Key:
[1] = clinical; conditions: human, po
[2] = 75 mg/m^2 over 28 days, monotherapy schedule for mHRPC; cited from earlier work
[3] = Two phase 1 studies of docetaxel capsules administered orally in combination with HM30181A; assay type: in vivo, human
[4] = for Reported half-life: individual values, sampling to 168 h, LLOQ 0.2 ng/mL
[5] = oral 35 mg/m^2 with Compound A, Mean, N=4
[6] = oral 35 mg/m^2 with Compound A, individual subjects
[7] = oral 75 mg/m^2 with Compound A, Mean, N=3
[8] = oral 75 mg/m^2 with Compound A, individual subjects
[9] = oral 75 mg/m^2 with Compound A, individual subjects, listed as Docetaxel
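Wherever Average Time above Target (0 to last time point measured above 4 ng/ml) is given: noncompartmental pharmacokinetic analysis in subjects with solid tumors, using linear-up log-down interpolation, with terminal slope time points picked automatically by the software.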
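Wherever Dose Normalized AUC is given: noncompartmental pharmacokinetic analysis in subjects with solid tumors, using linear-up log-down interpolation, with terminal slope time points picked automatically by the software.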
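Wherever Reported half-life is given: noncompartmental pharmacokinetic analysis in subjects with solid tumors, using linear-up log-down interpolation, with terminal slope time points picked automatically by the software.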
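Wherever docetaxel plasma concentration vs in vitro target IC50 of 5 nM (4 ng/mL) is given: noncompartmental pharmacokinetic analysis in subjects with solid tumors, using linear-up log-down interpolation, with terminal slope time points picked automatically by the software.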

CC(=O)O[C@@]12CO[C@@H]1C[C@H](O)[C@@]1(C)C(=O)[C@H](O)C3=C(C)[C@@H](OC(=O)[C@H](O)[C@@H](NC(=O)OC(C)(C)C)c4ccccc4)C[C@@](O)([C@@H](OC(=O)c4ccccc4)[C@H]21)C3(C)C [docetaxel, (2aR,4S,4aS,6R,9S,11S,12S,12aR,12b S)-12b-acetoxy-9-(((2R,3S)-3-((tert-butoxycarbonyl)amino)-2-hydroxy-3-phenylpropanoyl)oxy)-4,6,11-trihydroxy-4a,8,13,13-tetramethyl-5-oxo-2a,3,4,4a,5,6,9,10,11,12,12a, 12b-dodecahydro-1H-7,11-methanocyclodeca[3,4]benzo[1,2-b]oxet-12-yl benzoate]
AUC(0-inf) ([1]; in vivo, 35 mg/m2): 308 ng·h/mL
half-life ([1]; in vivo, 150 mg/m2): 53.2 h
Cmax ([1]; in vivo, 150 mg/m2, Cmax, oral 150 mg/m^2 with Compound A, individual subjects): 125 ng/mL
half-life ([1]; in vivo, 225 mg/m2): 54.4 h
Cmax ([1]; in vivo, 225 mg/m2, Cmax, oral 225 mg/m^2 with Compound A, individual subjects): 118 ng/mL
AUC(0-t) ([1]; plasma, 35 mg/m2, AUC0-12, oral 35 mg/m^2 with Compound A, Mean, N=4): 184 ng·h/mL
AUC(0-t) ([1]; plasma, 35 mg/m2, AUC0-24, oral 35 mg/m^2 with Compound A, Mean, N=4): 211 ng·h/mL
AUC(0-t) ([1]; plasma, 35 mg/m2, AUC0-48, oral 35 mg/m^2 with Compound A, Mean, N=4): 240 ng·h/mL
AUC(0-inf) ([1]; plasma, 35 mg/m2, AUCINF—obs, oral 35 mg/m^2 with Compound A, Mean, N=4): 296 ng·h/mL
Cmax ([1]; plasma, 35 mg/m2, Cmax, oral 35 mg/m^2 with Compound A, Mean, N=4): 69.1 ng/mL
Cmax ([1]; plasma, 35 mg/m2, Cmax, oral 35 mg/m^2 with Compound A, individual subjects): 38 to 157 ng/mL
half-life ([1]; plasma, 35 mg/m2, t1/2, oral 35 mg/m^2 with Compound A, Mean, N=4): 27.6 h
half-life ([1]; plasma, 35 mg/m2, t1/2, oral 35 mg/m^2 with Compound A, mean): 29.2 h
concentration at 24 hr ([1]; plasma, 35 mg/m^2, Analyte Concentration, oral 35 mg/m^2, cohort 1, time 24.0 hr, individual subjects): 1.25 ng/mL
AUC(0-t) ([1]; plasma, 75 mg/m2, AUC0-48, oral 75 mg/m^2 with Compound A, Mean, N=3): 675 ng·h/mL
AUC(0-inf) ([1]; plasma, 75 mg/m2, AUCINF—obs, oral 75 mg/m^2 with Compound A, Mean, N=3): 815 ng·h/mL
Cmax ([1]; plasma, 75 mg/m2, Cmax, oral 75 mg/m^2 with Compound A, Mean, N=3): 172 ng/mL
half-life ([1]; plasma, 75 mg/m2, Reported half-life, oral 75 mg/m^2, individual values, sampling to 168 h, LLOQ 0.2 ng/mL): 51.4 h
half-life ([1]; plasma, 75 mg/m2, t1/2, oral 75 mg/m^2 with Compound A, Mean, N=3): 53.1 h
half-life ([1]; plasma, 75 mg/m2, t1/2, oral 75 mg/m^2 with Compound A, individual subjects): 51.4 h
half-life ([1]; plasma, 75 mg/m2, t1/2, oral 75 mg/m^2 with Compound A, mean): 53.1 h
concentration at 0.25 hr ([1]; plasma, 75 mg/m^2, Analyte Concentration, oral 75 mg/m^2, cohort 2, time 0.250 hr, individual subjects): 28 ng/mL
Tmax ([1]; plasma, 150 mg/m2): 2.67 h
AUC(0-t) ([1]; plasma, 150 mg/m2, AUC0-12, oral 150 mg/m^2 with Compound A, individual subjects): 446 ng·h/mL
Cmax ([1]; plasma, 150 mg/m2, Cmax, oral 150 mg/m^2 with Compound A, individual subjects): 112 to 136 ng/mL
half-life ([1]; plasma, 150 mg/m2, Reported half-life, oral 150 mg/m^2, individual values, sampling to 168 h, LLOQ 0.2 ng/mL): 72 h
half-life ([1]; plasma, 150 mg/m2, t1/2, oral 150 mg/m^2 with Compound A, individual subjects): 72 h
Tmax ([1]; plasma, 225 mg/m2): 0.5 h
AUC(0-t) ([1]; plasma, 225 mg/m2, AUC0-24, oral 225 mg/m^2 with Compound A, Mean, N=3): 792 ng·h/mL
AUC(0-t) ([1]; plasma, 225 mg/m2, AUC0-24, oral 225 mg/m^2 with Compound A, individual subjects): 986 ng·h/mL
AUC(0-t) ([1]; plasma, 225 mg/m2, AUC0-48, oral 225 mg/m^2 with Compound A, Mean, N=3): 914 ng·h/mL
AUC(0-inf) ([1]; plasma, 225 mg/m2, AUCINF—obs, oral 225 mg/m^2 with Compound A, Mean, N=3): 1190 ng·h/mL
half-life ([1]; plasma, 225 mg/m2, t1/2, oral 225 mg/m^2 with Compound A, Mean, N=3): 56 h
half-life ([1]; plasma, 225 mg/m2, t1/2, oral 225 mg/m^2 with Compound A, individual subjects): 67.3 h
concentration at 1 hr ([1]; plasma, 225 mg/m^2, Analyte Concentration, oral 225 mg/m^2, cohort 4, time 1.00 hr, individual subjects): 55.6 ng/mL
concentration at 2 hr ([1]; plasma, 225 mg/m^2, Analyte Concentration, oral 225 mg/m^2, cohort 4, time 2.00 hr, individual subjects): 118 ng/mL
concentration at 4 hr ([1]; plasma, 225 mg/m^2, Analyte Concentration, oral 225 mg/m^2, cohort 4, time 4.00 hr, individual subjects): 28 ng/mL
target AUC [2]: 3410 ± 980 ng·h/mL
AUC ([3]; human, plasma, iv, 75 mg/m2, IV 75 mg/m^2): 2420 ng·h/mL
AUC ([3]; human, plasma, po, oral 35 mg/m^2 with HM30181A 15 mg): 248 ng·h/mL
AUC ([3]; human, plasma, po, oral 75 mg/m^2 with HM30181A 15 mg): 692 ng·h/mL
AUC ([3]; human, plasma, po, oral 150 mg/m^2 with HM30181A 15 mg): 888 ng·h/mL
AUC ([3]; human, plasma, po, oral 225 mg/m^2 with HM30181A 15 mg): 1400 ng·h/mL
bioavailability ([3]; human, plasma, oral 75 mg/m^2 with HM30181A 15 mg, read-out: Individual F %): 20 to 31%
Tmax ([3]; human, plasma, oral capsules in combination with HM30181A): 3 to 4 h
half-life ([3]; human, plasma, oral capsules in combination with HM30181A, read-out: terminal phase half-life (converted)): ~56 h
Cmax as % of that observed after IV administration ([3]; oral with HM30181A vs IV): 9.5-13%
docetaxel plasma concentration vs in vitro target IC50 of 5 nM (4 ng/mL) ([4]; individuals administered 35 or 75 mg/m^2 oral docetaxel): > 4 ng/mL
Reported half-life ([4]; oral 35 mg/m^2): 35 mg/m^2: 3.4 h, and 19.1 h and 65.3 h
Average Time above Target (0 to last time point measured above 4 ng/ml) ([4]; oral 35 mg/m^2 SD): 7.5 h
Dose Normalized AUC ([4]; oral 35 mg/m^2 with Compound A): 39.97
AUC % Extrapobs [4, 5]: 7.51%
Tmax [4, 5]: 1.50 h
AUC0-12 [4, 6]: 145 ng·h/mL and 39.8 ng·h/mL and 198 ng·h/mL and 353 ng·h/mL
AUC0-24 [4, 6]: 178 ng·h/mL and 46.1 ng·h/mL and 227 ng·h/mL and 392 ng·h/mL
AUC0-48 [4, 6]: 218 ng·h/mL and 46.1 ng·h/mL and 257 ng·h/mL and 440 ng·h/mL
AUC % Extrapobs [4, 6]: 7.76% and 11.4% and 3.39% and 7.45%
AUCINF—obs [4, 6]: 259 ng·h/mL and 44.9 ng·h/mL and 279 ng·h/mL and 599 ng·h/mL
Cmax [4, 6]: 38.0 ng/mL and 73.0 ng/mL and 157 ng/mL and 8.59 ng/mL
Tmax [4, 6]: 2.00 h and 1.00 h
t1/2 [4, 6]: 22.8 h and 3.40 h and 19.1 h and 65.3 h
AUC0-24 ([4]; oral 35 mg/m^2 with Compound A, individual subjects by cancer diagnosis): 170 to 392 ng·h/mL
AUC0-24 ([4]; oral 35 mg/m^2 with Compound A, individual subjects by cancer diagnosis, listed as Docetaxel): 170 ng·h/mL and 227 ng·h/mL and 392 ng·h/mL
Reported half-life ([4]; oral 75 mg/m^2): 62.4 h and 45.8 h
Average Time above Target (0 to last time point measured above 4 ng/ml) ([4]; oral 75 mg/m^2 SD): 21.5 h
Dose Normalized AUC ([4]; oral 75 mg/m^2 with Compound A): 38.23
AUC0-12 [4, 7]: 512 ng·h/mL
AUC0-24 [4, 7]: 598 ng·h/mL
AUC % Extrapobs [4, 7]: 3.89%
Tmax [4, 7]: 2.00 h
Cmax [4, 8]: 81.6 to 190 ng/mL
Tmax [4, 8]: 2.00 h
AUC0-24 ([4]; oral 75 mg/m^2 with Compound A, individual subjects by cancer diagnosis): 304 to 1030 ng·h/mL
AUC0-24 ([4]; oral 75 mg/m^2 with Compound A, individual subjects by cancer diagnosis, listed as Docetaxel): 461 ng·h/mL and 304 ng·h/mL and 1030 ng·h/mL
AUC0-12 [4, 9]: 390 ng·h/mL and 270 ng·h/mL and 875 ng·h/mL
AUC0-24 [4, 9]: 461 ng·h/mL and 304 ng·h/mL and 1030 ng·h/mL
AUC0-48 [4, 9]: 543 ng·h/mL and 334 ng·h/mL and 1150 ng·h/mL
AUC % Extrapobs [4, 9]: 4.31% and 4.87% and 2.50%
AUCINF—obs [4, 9]: 690 ng·h/mL and 409 ng·h/mL and 1350 ng·h/mL
Cmax [4, 9]: 165 ng/mL and 81.6 ng/mL and 190 ng/mL and 270 ng/mL
t1/2 [4, 9]: 62.1 h and 45.8 h
Reported half-life ([4]; oral 150 mg/m^2): 53.3 h and 63.3 h
Average Time above Target (0 to last time point measured above 4 ng/ml) ([4]; oral 150 mg/m^2 SD): 15.5 h
